Where “and” joins values, the source holds several entries; their conditions need not be identical. Identical values can stand only once. After the bases stand the sugars from the 5' end (letter, count) and the backbone: PS all phosphorothioate, else s phosphorothioate and o phosphodiester by linkage. Methylation of C is not given here. e = 2'-O-(2-methoxyethyl) (MOE); k = constrained ethyl (cEt); d = 2'-deoxy (DNA); m = 2'-O-methyl
Molecular target: HSD17B13
Settings: ASO, HepaRG

Sequence	target mRNA inhibition (1 µM)	also measured
ACCACACTAATGAATC (sugars k3 d10 k3, PS)	54%	
ACCACATAGCTAACTC (sugars k3 d10 k3, PS)	50%	
ACCCAAGCTACCTCCA (sugars k3 d10 k3, PS)	9%	
ACCCTTAGGAAAGCTC (sugars k3 d10 k3, PS)	52%	
ACCGTATTCCCAACGC (sugars k3 d10 k3, PS)	90%	target mRNA inhibition (0.02 µM): 14%; target mRNA inhibition (0.078 µM): 35%; target mRNA inhibition (0.313 µM): 76%; target mRNA inhibition (1.25 µM): 83%; target mRNA inhibition (5 µM): 94%
ACCGTTTTGGGCTAAT (sugars kkdddddddddkekek, PS)	76%	target mRNA inhibition (0.02 µM): 23%; target mRNA inhibition (0.078 µM): 24%; target mRNA inhibition (0.313 µM): 37%; target mRNA inhibition (1.25 µM): 66%; target mRNA inhibition (5 µM): 78%
ACCGUTTTGGGCTAAT (sugars k3 d1 m1 d8 k3, PS)	65%	
ACCTATGGTCTAACAC (sugars k3 d10 k3, PS)	14%	
ACCTCAAATGTCTTGG (sugars k3 d10 k3, PS)	17%	
ACCTGATTTAGAGAGC (sugars k3 d10 k3, PS)	65%	
ACCTTATTAATATCCC (sugars k3 d10 k3, PS)	71% and 50%	target mRNA inhibition (0.02 µM): 0%; target mRNA inhibition (0.078 µM): 0%; target mRNA inhibition (0.313 µM): 0%; target mRNA inhibition (1.25 µM): 72%; target mRNA inhibition (5 µM): 90%
ACCTTCCCTGTGTAAA (sugars k3 d10 k3, PS)	60%	
ACGCATGCGCAGTGAC (sugars k3 d10 k3, PS)	52%	
ACTAATATTGAGGCAC (sugars k3 d9 k3 e1, PS)	62%	
ACTAATCTCAGTACTC (sugars k3 d10 k3, PS)	45%	
ACTAATGAATCATGAT (sugars k3 d10 k3, PS)	39%	
ACTACAAGAGGTTATT (sugars k3 d1 m1 d8 k3, PS)	29%	
ACTACAAGAGGTTATT (sugars kkdddddddddkekek, PS)	42%	
ACTATGTAATAGGCAG (sugars k3 d10 k3, PS)	85%	target mRNA inhibition (0.02 µM): 33%; target mRNA inhibition (0.078 µM): 31%; target mRNA inhibition (0.313 µM): 71%; target mRNA inhibition (1.25 µM): 88%; target mRNA inhibition (5 µM): 94%
ACTCGGGAAGTTTAGA (sugars k3 d10 k3, PS)	26%	
ACTGAAATTGATACAC (sugars k3 d10 k3, PS)	49%	
ACTGAAGGCTGTGTAC (sugars k3 d10 k3, PS)	14%	
ACTGATTTAGTTGGTA (sugars k3 d10 k3, PS)	55%	

Sequence	target mRNA inhibition (1 µM)	also measured
ACTGTCCCAGCATTAT (sugars k3 d10 k3, PS)	40%	
ACTGTGACGATGTGGC (sugars k3 d10 k3, PS)	40%	
ACTTCATAGTGGACTT (sugars k3 d10 k3, PS)	61%	
ACTTGAATTCTGTGTC (sugars k3 d10 k3, PS)	52%	
AGAAGATCGGCTGGAT (sugars k3 d10 k3, PS)	29%	
AGAATAGAGTTGCACC (sugars kkdddddddddkekek, PS)	59%	
AGAATAGTCTTCAGCA (sugars k3 d10 k3, PS)	80%	
AGAAUAGAGTTGCACC (sugars k3 d1 m1 d8 k3, PS)	49%	
AGACAGGGTGGTAACG (sugars k3 d10 k3, PS)	51%	
AGACATGAGGTTTTGA (sugars k3 d10 k3, PS)	59%	
AGACTTTGAGACTCTT (sugars k3 d10 k3, PS)	57%	
AGAGACATGAGGTTTT (sugars k3 d10 k3, PS)	77%	target mRNA inhibition (0.02 µM): 18%; target mRNA inhibition (0.078 µM): 16%; target mRNA inhibition (0.313 µM): 47%; target mRNA inhibition (1.25 µM): 69%; target mRNA inhibition (5 µM): 85%
AGAGAGTAATCAGTTT (sugars k3 d1 m1 d8 k3, PS)	25%	
AGAGGCTAGGGAAATC (sugars k3 d10 k3, PS)	63%	
AGAGTTGCACCGTTTT (sugars k3 d9 k3 e1, PS)	78%	target mRNA inhibition (0.02 µM): 0%; target mRNA inhibition (0.078 µM): 0%; target mRNA inhibition (0.313 µM): 26%; target mRNA inhibition (1.25 µM): 55%; target mRNA inhibition (5 µM): 45%
AGAGUCGGTCACCTTT (sugars k3 d1 m1 d8 k3, PS)	55%	
AGATAAAGCTGCCTGC (sugars k3 d1 m1 d8 k3, PS)	35%	
AGATAAAGCTGCCTGC (sugars k3 d9 k3 e1, PS)	44%	
AGATAAAGCTGCCTGC (sugars kkdddddddddkekek, PS)	30%	
AGATATTGATATACGA (sugars k3 d10 k3, PS)	20%	
AGATCGGCTGGATATA (sugars k3 d10 k3, PS)	27%	
AGCAAGCCAACAGAGA (sugars k3 d10 k3, PS)	40%	
AGCAGAATTGTGAACG (sugars k3 d1 m1 d8 k3, PS)	51%	

Sequence	target mRNA inhibition (1 µM)	also measured
AGCAGAATTGTGAACG (sugars k3 d9 k3 e1, PS)	56%	
AGCAGAATTGTGAACG (sugars k3 d10 k3, PS)	67%	
AGCATATTCATTTGGC (sugars k3 d10 k3, PS)	61%	
AGCATCAAGACATTCT (sugars k3 d10 k3, PS)	79%	target mRNA inhibition (0.02 µM): 5%; target mRNA inhibition (0.078 µM): 15%; target mRNA inhibition (0.313 µM): 62%; target mRNA inhibition (1.25 µM): 78%; target mRNA inhibition (5 µM): 86%
AGCCAAACTGCTACTG (sugars k3 d10 k3, PS)	78%	
AGCCAGTACAGTTCCT (sugars k3 d1 m1 d8 k3, PS)	65%	
AGCCTAAAATTGTCTA (sugars k3 d10 k3, PS)	53%	
AGCGATAGATCTCTTC (sugars k3 d10 k3, PS)	31%	
AGCGGCAAATTTGCTG (sugars k3 d10 k3, PS)	5%	
AGCTAATGTATGAGGT (sugars k3 d10 k3, PS)	56%	
AGCTAGACAATTGCAA (sugars k3 d10 k3, PS)	30%	
AGGAGTAGTGGAGCCA (sugars k3 d10 k3, PS)	16%	
AGGATAGTCCATGCAA (sugars kkdddddddddkekek, PS)	46%	
AGGCAAGGATACCTGA (sugars k3 d10 k3, PS)	42%	
AGGCCATAATCTTGTG (sugars k3 d10 k3, PS)	33%	
AGGCTAAAATGGTCAT (sugars k3 d10 k3, PS)	36%	
AGGCTAGGGAAATCTT (sugars k3 d9 k3 e1, PS)	55%	
AGGCTAGGGAAATCTT (sugars k3 d10 k3, PS)	62%	
AGGCTTATGAAGTTAG (sugars k3 d10 k3, PS)	57%	
AGGCUAGGGAAATCTT (sugars k3 d1 m1 d8 k3, PS)	41%	
AGGGAATGTTATGTAC (sugars k3 d10 k3, PS)	49%	

From the OligoGym collection
